# Test results taken from ChEMBL document CHEMBL1133460, “Synthesis and biological evaluation of certain alpha,beta-unsaturated ketones and their corresponding fused pyridines as antiviral and cytotoxic agents” (J Med Chem, 2000).
# Where “and” joins values, the source holds several entries; their conditions need not be identical. Equal values may be shown once.
# Tested on: Panel renal (Carcinoma cell lines)
# Assay: In vitro growth inhibitory concentration against renal cancer cell lines
# Type: functional
# Conditions: Homo sapiens; call rule not given here
row,Structure (SMILES),TGI [µM]
1,COc1ccc(/C=C2\CN(C)CC3=C2N=C(S)NC3c2ccc(OC)cc2)cc1 (stereo not given),97.2
2,COc1ccc(/C=C2\CN(C)Cc3c2nc(O)c(C#N)c3-c2ccc(OC)cc2)cc1,87.8
3,CN1C/C(=C\c2cccs2)C2=NN(C)C(c3cccs3)C2C1 (stereo not given),> 100
4,CN1C/C(=C\c2cccs2)C(O)/C(=C/c2cccs2)C1 (stereo not given),> 100

# Tested on: Panel leukemia (Carcinoma cell lines)
# Assay: In vitro growth inhibitory concentration against leukemia tumor cell lines
# Type: functional
# Conditions: Homo sapiens
row,Structure (SMILES),TGI [µM]
1,COc1ccc(/C=C2\CN(C)CC3=C2N=C(S)NC3c2ccc(OC)cc2)cc1 (stereo not given),36.3
2,COc1ccc(/C=C2\CN(C)Cc3c2nc(O)c(C#N)c3-c2ccc(OC)cc2)cc1,80.7
3,CN1C/C(=C\c2cccs2)C2=NN(C)C(c3cccs3)C2C1 (stereo not given),87.8
4,CN1C/C(=C\c2cccs2)C(O)/C(=C/c2cccs2)C1 (stereo not given),78.1

# Tested on: not listed separately
# Assay: In vitro median growth inhibitory concentration against colon cancer cell lines
# Type: functional
# Conditions: Homo sapiens
row,Structure (SMILES),GI50 [µM]
1,COc1ccc(/C=C2\CN(C)CC3=C2N=C(S)NC3c2ccc(OC)cc2)cc1 (stereo not given),4
2,COc1ccc(/C=C2\CN(C)Cc3c2nc(O)c(C#N)c3-c2ccc(OC)cc2)cc1,60.5
3,CN1C/C(=C\c2cccs2)C2=NN(C)C(c3cccs3)C2C1 (stereo not given),79.2
4,CN1C/C(=C\c2cccs2)C(O)/C(=C/c2cccs2)C1 (stereo not given),85.8

# Tested on: NSCLC
# Assay: In vitro growth inhibitory concentration against non-small-cell lung cancer
# Type: functional
# Conditions: Homo sapiens
row,Structure (SMILES),TGI [µM]
1,COc1ccc(/C=C2\CN(C)CC3=C2N=C(S)NC3c2ccc(OC)cc2)cc1 (stereo not given),93.6
2,COc1ccc(/C=C2\CN(C)Cc3c2nc(O)c(C#N)c3-c2ccc(OC)cc2)cc1,> 100
3,CN1C/C(=C\c2cccs2)C2=NN(C)C(c3cccs3)C2C1 (stereo not given),> 100
4,CN1C/C(=C\c2cccs2)C(O)/C(=C/c2cccs2)C1 (stereo not given),> 100

# Tested on: Ovarian cancer cell line
# Assay: In vitro growth inhibitory concentration against ovarian cancer cell lines
# Type: functional
# Conditions: Homo sapiens
row,Structure (SMILES),TGI [µM]
1,COc1ccc(/C=C2\CN(C)CC3=C2N=C(S)NC3c2ccc(OC)cc2)cc1 (stereo not given),76.4
2,COc1ccc(/C=C2\CN(C)Cc3c2nc(O)c(C#N)c3-c2ccc(OC)cc2)cc1,> 100
3,CN1C/C(=C\c2cccs2)C2=NN(C)C(c3cccs3)C2C1 (stereo not given),> 100
4,CN1C/C(=C\c2cccs2)C(O)/C(=C/c2cccs2)C1 (stereo not given),> 100

# Tested on: Panel CNS (Carcinoma cell lines)
# Assay: In vitro growth inhibitory concentration against CNS cancer cell lines
# Type: functional
# Conditions: Homo sapiens
row,Structure (SMILES),TGI [µM]
1,COc1ccc(/C=C2\CN(C)CC3=C2N=C(S)NC3c2ccc(OC)cc2)cc1 (stereo not given),81.9
2,COc1ccc(/C=C2\CN(C)Cc3c2nc(O)c(C#N)c3-c2ccc(OC)cc2)cc1,> 100
3,CN1C/C(=C\c2cccs2)C2=NN(C)C(c3cccs3)C2C1 (stereo not given),> 100
4,CN1C/C(=C\c2cccs2)C(O)/C(=C/c2cccs2)C1 (stereo not given),> 100

# Tested on: Human immunodeficiency virus 1
# Assay: In vitro effective concentration against HIV-1 cytopathic effect in T4 cells; Inactive
# Type: functional, organism-based
# Conditions: not given
row,Structure (SMILES),EC50
1,COc1ccc(/C=C2\CN(C)CC3=C2N=C(S)NC3c2ccc(OC)cc2)cc1 (stereo not given),Not Active
2,COc1ccc(/C=C2\CN(C)Cc3c2nc(O)c(C#N)c3-c2ccc(OC)cc2)cc1,Not Active
3,CN1C/C(=C\c2cccs2)C2=NN(C)C(c3cccs3)C2C1 (stereo not given),Not Active
4,CN1C/C(=C\c2cccs2)C(O)/C(=C/c2cccs2)C1 (stereo not given),Not Active

# Tested on: Breast cancer cell line
# Assay: In vitro median growth inhibitory concentration against breast cancer cell lines
# Type: functional
# Conditions: Homo sapiens
row,Structure (SMILES),GI50 [µM]
1,COc1ccc(/C=C2\CN(C)CC3=C2N=C(S)NC3c2ccc(OC)cc2)cc1 (stereo not given),11.1
2,COc1ccc(/C=C2\CN(C)Cc3c2nc(O)c(C#N)c3-c2ccc(OC)cc2)cc1,66.9
3,CN1C/C(=C\c2cccs2)C2=NN(C)C(c3cccs3)C2C1 (stereo not given),86
4,CN1C/C(=C\c2cccs2)C(O)/C(=C/c2cccs2)C1 (stereo not given),84.3

# Tested on: Tumor cell line
# Assay: Median lethal concentration was estimated
# Type: ADME, cell-based
# Conditions: human
row,Structure (SMILES),LC50 [µM]
1,COc1ccc(/C=C2\CN(C)CC3=C2N=C(S)NC3c2ccc(OC)cc2)cc1 (stereo not given),91.8

# Tested on: not listed separately
# Assay: In vitro growth inhibitory concentration against colon cancer tumor cell lines
# Type: functional
# Conditions: Homo sapiens
row,Structure (SMILES),TGI [µM]
1,COc1ccc(/C=C2\CN(C)CC3=C2N=C(S)NC3c2ccc(OC)cc2)cc1 (stereo not given),76.3
2,COc1ccc(/C=C2\CN(C)Cc3c2nc(O)c(C#N)c3-c2ccc(OC)cc2)cc1,> 100
3,CN1C/C(=C\c2cccs2)C2=NN(C)C(c3cccs3)C2C1 (stereo not given),> 100
4,CN1C/C(=C\c2cccs2)C(O)/C(=C/c2cccs2)C1 (stereo not given),> 100

# Tested on: Panel CNS (Carcinoma cell lines)
# Assay: In vitro median growth inhibitory concentration against CNS cancer cell lines
# Type: functional
# Conditions: Homo sapiens
row,Structure (SMILES),GI50 [µM]
1,COc1ccc(/C=C2\CN(C)CC3=C2N=C(S)NC3c2ccc(OC)cc2)cc1 (stereo not given),30
2,COc1ccc(/C=C2\CN(C)Cc3c2nc(O)c(C#N)c3-c2ccc(OC)cc2)cc1,44.9
3,CN1C/C(=C\c2cccs2)C2=NN(C)C(c3cccs3)C2C1 (stereo not given),80.7
4,CN1C/C(=C\c2cccs2)C(O)/C(=C/c2cccs2)C1 (stereo not given),> 100

# Organism: Homo sapiens
# Assay: Selectivity ratio between the full panel MG-MID and leukemia subpanel MG-MID was determined.
# Type: functional
# Conditions: not given
row,Structure (SMILES),Ratio
1,COc1ccc(/C=C2\CN(C)CC3=C2N=C(S)NC3c2ccc(OC)cc2)cc1 (stereo not given),2.5
2,COc1ccc(/C=C2\CN(C)Cc3c2nc(O)c(C#N)c3-c2ccc(OC)cc2)cc1,1.5
3,CN1C/C(=C\c2cccs2)C2=NN(C)C(c3cccs3)C2C1 (stereo not given),2.1
4,CN1C/C(=C\c2cccs2)C(O)/C(=C/c2cccs2)C1 (stereo not given),2.4

# Tested on: Panel renal (Carcinoma cell lines)
# Assay: In vitro median growth inhibitory concentration against renal cancer cell lines
# Type: functional
# Conditions: Homo sapiens
row,Structure (SMILES),GI50 [µM]
1,COc1ccc(/C=C2\CN(C)CC3=C2N=C(S)NC3c2ccc(OC)cc2)cc1 (stereo not given),5.9
2,COc1ccc(/C=C2\CN(C)Cc3c2nc(O)c(C#N)c3-c2ccc(OC)cc2)cc1,61.2
3,CN1C/C(=C\c2cccs2)C2=NN(C)C(c3cccs3)C2C1 (stereo not given),89.7
4,CN1C/C(=C\c2cccs2)C(O)/C(=C/c2cccs2)C1 (stereo not given),96.2

# Tested on: Panel melanoma (Carcinoma cell lines)
# Assay: In vitro median growth inhibitory concentration against melanoma cell lines
# Type: functional
# Conditions: Homo sapiens
row,Structure (SMILES),GI50 [µM]
1,COc1ccc(/C=C2\CN(C)CC3=C2N=C(S)NC3c2ccc(OC)cc2)cc1 (stereo not given),11.7
2,COc1ccc(/C=C2\CN(C)Cc3c2nc(O)c(C#N)c3-c2ccc(OC)cc2)cc1,79.9
3,CN1C/C(=C\c2cccs2)C2=NN(C)C(c3cccs3)C2C1 (stereo not given),85
4,CN1C/C(=C\c2cccs2)C(O)/C(=C/c2cccs2)C1 (stereo not given),92.5

# Tested on: Ovarian cancer cell line
# Assay: In vitro median growth inhibitory concentration against ovarian cancer cell lines
# Type: functional
# Conditions: Homo sapiens
row,Structure (SMILES),GI50 [µM]
1,COc1ccc(/C=C2\CN(C)CC3=C2N=C(S)NC3c2ccc(OC)cc2)cc1 (stereo not given),5
2,COc1ccc(/C=C2\CN(C)Cc3c2nc(O)c(C#N)c3-c2ccc(OC)cc2)cc1,51.8
3,CN1C/C(=C\c2cccs2)C2=NN(C)C(c3cccs3)C2C1 (stereo not given),74.4
4,CN1C/C(=C\c2cccs2)C(O)/C(=C/c2cccs2)C1 (stereo not given),81.4

# Tested on: not listed separately
# Assay: Full panel mean-graph midpoint (MG-MID)
# Conditions: not given
row,Structure (SMILES),MG-MID
1,COc1ccc(/C=C2\CN(C)CC3=C2N=C(S)NC3c2ccc(OC)cc2)cc1 (stereo not given),4.9 µM
2,COc1ccc(/C=C2\CN(C)Cc3c2nc(O)c(C#N)c3-c2ccc(OC)cc2)cc1,52.5 µM and 95.8 µM
3,CN1C/C(=C\c2cccs2)C2=NN(C)C(c3cccs3)C2C1 (stereo not given),68 µM and 97.7 µM
4,CN1C/C(=C\c2cccs2)C(O)/C(=C/c2cccs2)C1 (stereo not given),77.1 µM and 97.7 µM

# Tested on: Panel prostate (Carcinoma cell lines)
# Assay: In vitro median growth inhibitory concentration against prostate cancer cell lines
# Type: functional
# Conditions: Homo sapiens
row,Structure (SMILES),GI50 [µM]
1,COc1ccc(/C=C2\CN(C)CC3=C2N=C(S)NC3c2ccc(OC)cc2)cc1 (stereo not given),9.1
2,COc1ccc(/C=C2\CN(C)Cc3c2nc(O)c(C#N)c3-c2ccc(OC)cc2)cc1,70.9
3,CN1C/C(=C\c2cccs2)C2=NN(C)C(c3cccs3)C2C1 (stereo not given),59.5
4,CN1C/C(=C\c2cccs2)C(O)/C(=C/c2cccs2)C1 (stereo not given),> 100

# Tested on: Breast cancer cell line
# Assay: In vitro growth inhibitory concentration against breast cancer cell lines
# Type: functional
# Conditions: Homo sapiens
row,Structure (SMILES),TGI [µM]
1,COc1ccc(/C=C2\CN(C)CC3=C2N=C(S)NC3c2ccc(OC)cc2)cc1 (stereo not given),68.1
2,COc1ccc(/C=C2\CN(C)Cc3c2nc(O)c(C#N)c3-c2ccc(OC)cc2)cc1,> 100
3,CN1C/C(=C\c2cccs2)C2=NN(C)C(c3cccs3)C2C1 (stereo not given),> 100
4,CN1C/C(=C\c2cccs2)C(O)/C(=C/c2cccs2)C1 (stereo not given),96.8

# Tested on: MT4
# Assay: In vitro inhibitory activity against uninfected T4 cells
# Type: functional, cell-based
# Conditions: Homo sapiens
row,Structure (SMILES),IC50 [µM]
1,COc1ccc(/C=C2\CN(C)CC3=C2N=C(S)NC3c2ccc(OC)cc2)cc1 (stereo not given),6.8
2,COc1ccc(/C=C2\CN(C)Cc3c2nc(O)c(C#N)c3-c2ccc(OC)cc2)cc1,104
3,CN1C/C(=C\c2cccs2)C2=NN(C)C(c3cccs3)C2C1 (stereo not given),> 200
4,CN1C/C(=C\c2cccs2)C(O)/C(=C/c2cccs2)C1 (stereo not given),126

# Tested on: Panel melanoma (Carcinoma cell lines)
# Assay: In vitro growth inhibitory concentration against melanoma cancer cell lines
# Type: functional
# Conditions: Homo sapiens
row,Structure (SMILES),TGI [µM]
1,COc1ccc(/C=C2\CN(C)CC3=C2N=C(S)NC3c2ccc(OC)cc2)cc1 (stereo not given),83.1
2,COc1ccc(/C=C2\CN(C)Cc3c2nc(O)c(C#N)c3-c2ccc(OC)cc2)cc1,> 100
3,CN1C/C(=C\c2cccs2)C2=NN(C)C(c3cccs3)C2C1 (stereo not given),97.7
4,CN1C/C(=C\c2cccs2)C(O)/C(=C/c2cccs2)C1 (stereo not given),> 100

# Tested on: not listed separately
# Assay: Full panel mean-graph midpoint (MG-MID).
# Conditions: not given
row,Structure (SMILES),MG-MID [µM]
1,COc1ccc(/C=C2\CN(C)CC3=C2N=C(S)NC3c2ccc(OC)cc2)cc1 (stereo not given),56.3

# Tested on: NSCLC
# Assay: In vitro median growth inhibitory concentration against non-small-cell lung cancer
# Type: functional
# Conditions: Homo sapiens
row,Structure (SMILES),GI50 [µM]
1,COc1ccc(/C=C2\CN(C)CC3=C2N=C(S)NC3c2ccc(OC)cc2)cc1 (stereo not given),6.5
2,COc1ccc(/C=C2\CN(C)Cc3c2nc(O)c(C#N)c3-c2ccc(OC)cc2)cc1,66.6
3,CN1C/C(=C\c2cccs2)C2=NN(C)C(c3cccs3)C2C1 (stereo not given),86.4
4,CN1C/C(=C\c2cccs2)C(O)/C(=C/c2cccs2)C1 (stereo not given),83.9

# Tested on: Panel leukemia (Carcinoma cell lines)
# Assay: In vitro median growth inhibitory conc. against leukemia was estimated.
# Type: functional
# Conditions: Homo sapiens
row,Structure (SMILES),GI50 [µM]
1,COc1ccc(/C=C2\CN(C)CC3=C2N=C(S)NC3c2ccc(OC)cc2)cc1 (stereo not given),2
2,COc1ccc(/C=C2\CN(C)Cc3c2nc(O)c(C#N)c3-c2ccc(OC)cc2)cc1,35
3,CN1C/C(=C\c2cccs2)C2=NN(C)C(c3cccs3)C2C1 (stereo not given),31.8
4,CN1C/C(=C\c2cccs2)C(O)/C(=C/c2cccs2)C1 (stereo not given),32.5

# Tested on: Panel prostate (Carcinoma cell lines)
# Assay: In vitro growth inhibitory concentration against prostate cancer cell lines
# Type: functional
# Conditions: Homo sapiens
row,Structure (SMILES),TGI [µM]
1,COc1ccc(/C=C2\CN(C)CC3=C2N=C(S)NC3c2ccc(OC)cc2)cc1 (stereo not given),30.1
2,COc1ccc(/C=C2\CN(C)Cc3c2nc(O)c(C#N)c3-c2ccc(OC)cc2)cc1,> 100
3,CN1C/C(=C\c2cccs2)C2=NN(C)C(c3cccs3)C2C1 (stereo not given),> 100
4,CN1C/C(=C\c2cccs2)C(O)/C(=C/c2cccs2)C1 (stereo not given),> 100
